Assay results from paper PMC9334755 (Cancer Biology & Medicine, 2021).

Legend:
[1] = system: B cell; assay: Cell viability assay (CellTiter-Blue), human B cells; assay type: cell-based; details: B-cell, read-out: IC50 (nM), growth of B cell
Method: (§1) Cells were seeded on 96-well plates (9,000 cells/well), cultured at 37 °C in 5% CO2 overnight, and incubated with different concentrations of compounds for 3 or 7 days. Then the cells were stained with CellTiter-Blue® reagent (Promega) for 4 h at 37 °C. The fluorescence signals were detected with a FlexStation 3, and the IC50 values of each compound were determined with GraFit software (Version 6.0).
(§2) CD19^+ B (>80% purity) and CD3^+ T (>90% purity) cells were purified with human B cell enrichment cocktail and human T cell enrichment cocktail (Stem Cell Technology), respectively. Cells were seeded on 12-well plates and incubated with different concentrations of BTK inhibitors for 1 h. B cells were stimulated with 50 µg/mL anti-human IgM F(ab′)2, and T cells were stimulated with 50 µg/mL anti-CD3/CD28 beads overnight. In the washout groups, the cell medium containing the indicated inhibitors was replaced with fresh medium before stimulation. Then cells were then incubated with anti-human CD69 for 1 h and analyzed with a Guava flow cytometer.

[2] = system: T cell; assay: Cell viability assay (CellTiter-Blue), human T cells; assay type: cell-based; details: T-cell, read-out: IC50 (nM), growth of T cell
Method: as §1, §2

[3] = system: TMD8 xenografts; assay: TMD8 tumor xenograft in SCID mice; assay type: in vivo
Method: TMD8 cells (1.0 × 10^7 cells in 100 µL of serum-free medium containing 40% Matrigel) were injected subcutaneously into SCID mice (6–8 weeks of age), and the tumor volume was monitored twice per week. […] The compounds were formulated in 0.5% methylcellulose containing 0.1% sodium lauryl sulfate. Tumor size and body weight were measured twice per week. All experiments were approved by the institutional animal care and use committee of Shouyao Holdings and were performed in accordance with the guidelines in the U.S. National Institutes of Health Guide for the Care and Use of Laboratory Animals (Approval No. CTA-2015063).
Figure 5 SY-1530 inhibits B-cell malignancy in vivo. (A–D) TMD8 cells were injected subcutaneously into SCID mice (6–8 weeks of age; 8 mice per group). […] Tumor size (A) and body weight (B) were measured […]. On the last day, mice were sacrificed 2.5 h after administration. LC-MS/MS was performed to measure the concentration of SY-1530 in plasma (C), and tumor samples were collected and analyzed with Western blot (D). QD represents administration once daily. Data are shown as mean ± SEM. Statistical analysis was performed with two-way analysis of variance (*P < 0.05; **P < 0.01; ***P < 0.001). […] Tumor size (E), body weight (F), SY-1530 concentration in the plasma (G), and protein expression in tumors (H) were measured. Data are shown as mean ± SEM. Statistical analysis was performed with two-way analysis of variance (*P < 0.05; **P < 0.01; ***P < 0.001).

[4] = system: TMD8; assay: Cell viability assay (CellTiter-Blue), TMD8; assay type: cell-based, human; details: Homo sapiens, TMD8, read-out: IC50 (nM), growth of TMD8
Method: as §1

[5] = system: human peripheral T cells; assay: CD69 up-regulation in T cells after anti-CD3/CD28 stimulation; assay type: cell-based
Method: as §2
(§3) Figure 4 SY-1530 blocks B-cell receptor signaling and induces apoptosis. (A–D) Human B and T cells were purified and incubated with different concentrations of BTK inhibitors for 1 h. B cells were stimulated with 50 μg/mL anti-human IgM F(ab′)2, and T cells were stimulated with 50 μg/mL anti-CD3/CD28 beads overnight directly or after washout of BTK inhibitors before stimulation. The percentage of CD69 positive cells was analyzed by flow cytometry. Data are shown as the mean ± SEM (n = 3). Statistical analysis was performed with Student’s t-test (*P < 0.05, **P < 0.01, ***P < 0.001). (E) Pfeiffer cells and Romas cells were preincubated with different concentrations of compounds for 1 h, washed with PBS, and then stimulated with anti-IgM/anti-IgG (10 μg/mL) for 10 min. Cells were lysed and analyzed by Western blot with the indicated antibodies. (F) Pfeiffer cells were treated with various concentrations of SY-1530 for 24 h. The cells were stained with both PE-Annexin and 7-AAD and analyzed by flow cytometry. Data are shown as the mean ± SEM (n = 3). Statistical analysis was performed with Student’s t-test (*P < 0.05, **P < 0.01). (G) Pfeiffer cells were incubated with BTK inhibitors in the presence of z-VAD-fmk (caspase inhibitor) or DMSO for 24 h. Cells were lysed and analyzed with specific antibodies.

[6] = system: Pfeiffer; assay: Cell viability assay (CellTiter-Blue), Pfeiffer; assay type: cell-based, human; details: Homo sapiens; Pfeiffer cells; read-out: IC50 (nM), growth of Pfeiffer
Method: as §1

[7] = system: human peripheral B cells; assay: CD69 up-regulation in B cells after anti-IgM stimulation; assay type: cell-based
Method: as §2, §3

[8] = target: T1, BTK wild-type (Homo sapiens, UniProt Q06187); assay: Fluorescent labelling of wild-type BTK in HEK293 cells; assay type: cell-based; details: 1 h
T1 construct: expressed in transfected cells; host or cells: HEK293 (methods list HEK293T)
T1 sequence (Q06187 whole entry): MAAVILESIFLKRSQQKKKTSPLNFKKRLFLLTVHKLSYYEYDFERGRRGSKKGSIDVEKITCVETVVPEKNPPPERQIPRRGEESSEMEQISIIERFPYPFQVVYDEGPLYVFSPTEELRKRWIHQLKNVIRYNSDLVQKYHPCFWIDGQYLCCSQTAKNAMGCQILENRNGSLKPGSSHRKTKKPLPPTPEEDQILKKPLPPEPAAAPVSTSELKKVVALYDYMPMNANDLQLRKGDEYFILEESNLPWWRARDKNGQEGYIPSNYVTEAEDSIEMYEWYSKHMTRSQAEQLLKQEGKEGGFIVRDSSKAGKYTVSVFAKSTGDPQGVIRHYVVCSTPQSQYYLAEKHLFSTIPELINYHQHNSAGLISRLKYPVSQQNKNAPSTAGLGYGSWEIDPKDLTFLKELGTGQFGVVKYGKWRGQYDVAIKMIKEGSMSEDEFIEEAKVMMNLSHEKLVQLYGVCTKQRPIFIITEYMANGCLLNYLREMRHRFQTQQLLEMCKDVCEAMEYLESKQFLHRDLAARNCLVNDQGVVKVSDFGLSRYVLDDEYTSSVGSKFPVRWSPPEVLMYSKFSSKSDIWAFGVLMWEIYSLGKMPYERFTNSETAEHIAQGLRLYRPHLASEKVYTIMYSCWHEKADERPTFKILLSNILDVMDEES
Excerpt: (§4) The antibodies to β-actin (5125), poly(ADP-ribose) polymerase (PARP) (9532S), cleaved caspase-3 (9661S), BTK (8547), PLCγ2(55512), ERK1/2 (9107), phospho-PLCγ2 (Tyr1217) (3871), phospho-BTK (Tyr223) (87457), and ERK1/2 pT202/pY204 (4377) were purchased from Cell Signaling Technology. An Annexin V-PE Apoptosis Detection Kit (555763), and PE mouse anti-human CD69 (555531), PE mouse anti-human CD3 (555340), and PE mouse anti-human CD19 (561741) were purchased from BD Bioscience. Dynabeads® Human T-Activator CD3/CD28 (11161D) was purchased from Life Technology. Goat anti-human IgM F(ab)2 (2022) was purchased from SouthernBiotech. An HTRF® KinEASE™-TK Kit (62TK0PEC) was purchased from Cisbio. […]
(§5) Cells were treated as indicated before the addition of a fluorescent probe (FL-SY-1530). […] After scanning, the gels were detected with Western blot.
(§6) Figure 2 Irreversible targeting of BTK by SY-1530. […] (B) The content of the compounds was measured with LC-MS/MS after incubation with BTK for 4 h. […] (D) DOHH2 cells were treated with various concentrations of FL-SY-1530 for 1 h, after which cells were lysed and analyzed by SDS-PAGE with the indicated antibodies and fluorescent gel scanning with a Typhoon imaging system. […] (F) HEK293 cells expressing wild-type or C481A mutant BTK were treated with FL-SY-1530 or FL-ibrutinib for 1 h, and the cells were then lysed and analyzed. […]

[9] = target: T2, BTK C481A mutant (Homo sapiens, UniProt Q06187, C481A); assay: Fluorescent labelling of BTK C481A mutant in HEK293 cells; assay type: cell-based; details: 1 h
T2 construct: expressed in transfected cells; host or cells: HEK293 (methods list HEK293T)
T2 sequence (Q06187 whole entry C481A): as the sequence (Q06187 whole entry) above, with C481A counted along it
Excerpt: as §4, §5, §6

| Binding of labelled compound to wild-type BTK [8] | Binding of labelled compound to BTK C481A mutant [9] | SMILES | IC50 [1] | IC50 [2] | Mouse bodyweight ([3]; BID groups) | Tumor growth versus vehicle treated group ([3]; BID, SY-1530 30 or 10 mg/kg, ibrutinib 30 mg/kg) | IC50 [4] | Up-regulation of CD69 in T cells ([5]; after washout of BTK inhibitors) | CD69 up-regulation after T cell receptor stimulation ([5]; continuous exposure, 10 µM) | IC50 [6] | Up-regulation of CD69 in B cells after anti-IgM ([7]; continuous exposure, 10 nM) | Up-regulation of CD69 in B cells after anti-IgM ([7]; inhibitors washed out before BCR stimulation) |
| --- | --- | --- | --- | --- | --- | --- | --- | --- | --- | --- | --- | --- |
| – | – | C=CC(=O)N1CCC[C@@H](n2nc(-c3ccc(Oc4ccccc4)cc3)c3c(N)ncnc32)C1 [ibrutinib, reference compound] | 0.85 nM | 1000 to 10000 nM | moderate decrease | dramatically lower | 17.3 nM | not affected | significantly abrogated | 45.9 nM | completely abolished | blocked |
| bound the wild-type BTK | not the C481A mutant | CC1=CC(C)=[N+]2C1=Cc1ccc(CCC(=O)NCCN3CCN(CC=CC(=O)N4CCC(n5nc(-c6ccc(Oc7ccccc7)cc6)c(C(N)=O)c5N)C4)CC3)n1[B-]2(F)F (centres unmarked) [FL-SY-1530] | – | – | – | – | – | – | – | – | – | – |
| bound the wild-type BTK | not the C481A mutant | CC1=CC(C)=[N+]2C1=Cc1ccc(CCC(=O)NCCN3CCN(CC=CC(=O)N4CCCC(n5nc(-c6ccc(Oc7ccccc7)cc6)c6c(N)ncnc65)C4)CC3)n1[B-]2(F)F (centres unmarked) [FL-ibrutinib, reference compound] | – | – | – | – | – | – | – | – | – | – |
